Results as given in patent US5686486A, “4-hydroxy-benzopyran-2-ones and 4-hydroxy-cycloalkyl[b]pyran-2-ones useful to treat retroviral infections” (priority 1995, dated 1997).
Where “and” joins values, the source holds several entries; their conditions need not be identical. Identical values can stand only once. Like-named read-outs stand apart in the source and are kept apart here.

Tests used:
HIV-1 protease [1] = molecular target: T1, HIV-1 protease (Human immunodeficiency virus type 1 group M subtype B, UniProt P04585); assay: biochemical
Procedure, shortened: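 Ki from two-fold serial inhibitor dilutions (24–48 concentrations) with 40 nM HIV-1 protease stock and 200 μM substrate stock, 90 min at room temperature; stopped with avidin beads. Reference inhibitor run in parallel; Ki by nonlinear least-squares fit.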

HIV-1 protease [2] = molecular target: T1, HIV-1 protease; assay: biochemical; settings: for inhibition at 0.123 µM: read-out: HIV-1 Protease % Inhib, dose 0.123 uM; for inhibition at 0.37 µM: read-out: HIV-1 Protease % Inhib, dose 0.370 uM; for inhibition at 1.1 µM: read-out: HIV-1 Protease % Inhib, dose 1.100 uM; for inhibition at 3.3 µM: read-out: HIV-1 Protease % Inhib, dose 3.300 uM; for inhibition at 10 µM: read-out: HIV-1 Protease % Inhib, dose 10.000 uM; for inhibition at 30 µM: read-out: HIV-1 Protease % Inhib, dose 30.000 uM; for inhibition at 1 µM: read-out: HIV-1 Protease % Inhib, dose 1.000 uM; for inhibition at 100 µM: read-out: HIV-1 Protease % Inhib, dose 100.000 uM
Procedure, shortened: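 Biotinylated, FITC-labeled peptide substrate (20 μl of 0.2 μM) incubated with HIV-1 protease (10 μl of 0.1 μM) and compound in 0.1 M sodium acetate pH 5.5, 1.0 M NaCl, 0.05% NP-40, 1 h, room temperature, dark. Streptavidin beads then capture uncleaved substrate; filtered labeled product read by fluorescence, giving percent inhibition.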

Structure (SMILES) | Ki (HIV-1 protease [1]; read-out: HIV-1 FITC KI) | inhibition at 0.123 µM (HIV-1 protease [2]) [%] | inhibition at 0.37 µM (HIV-1 protease [2]) [%] | inhibition at 1.1 µM (HIV-1 protease [2]) [%] | inhibition at 3.3 µM (HIV-1 protease [2]) [%] | inhibition at 10 µM (HIV-1 protease [2]) [%] | inhibition at 30 µM (HIV-1 protease [2]) [%] | other results
CCCCCCCCS(=O)(=O)Nc1cccc(C(c2c(O)c3c(oc2=O)CCCCCC3)C2CC2)c1 (centres unmarked) [Example 343, N-[3-[Cyclopropyl(5,6,7,8,9,10-hexahydro-4-hydroxy-2-oxo-2H-cycloocta[b]pyran-3-yl)methyl]phenyl]-1-octanesulfonamide] | 6 nM | 39.4 | 75 | 91.2 | 104 | 112 | 105 | –
CCCC1CCCCc2c1oc(=O)c(C(c1ccccc1)C1CC1)c2O (centres unmarked) [Example 188, 3-(Cyclopropylphenylmethyl)-6,7,8,9-tetrahydro-4-hydroxy-9-propyl-cyclohepta[b]pyran-2(5H)-one] | 26 nM | 27.3 | 57 | 82.2 | 88.4 | 88.3 | 84.5 | –
Cc1noc(C)c1S(=O)(=O)Nc1cccc(C(c2c(O)c3c(oc2=O)CCCCCC3)C2CC2)c1 (centres unmarked) [Example 338, N-[3-[Cyclopropyl(5,6,7,8,9,10-hexahydro-4-hydroxy-2-oxo-2H-cycloocta[b]pyran-3-yl)methyl]phenyl]-3,5-dimethyl-4-isoxazolesulfonamide] | 9.8 nM | 39.1 | 80.1 | 86.3 | 96.8 | 102 | 100 | –
O=c1oc2c(c(O)c1C(c1ccccc1)C1CC1)CCCCC2Cc1ccccc1 (centres unmarked) [Example 182, 3-(Cyclopropylphenylmethyl)-6,7,8,9-tetrahydro-4-hydroxy-9-(phenylmethyl)-cyclohepta[b]pyran-2(5H)-one] | 117 nM | – | 22.3 | 51 | 83.7 | 99.2 | 98.7 | –
CC(C)(C)OC(=O)NCCC(=O)Nc1cccc(C(c2c(O)c3c(oc2=O)CCCCCC3)C2CC2)c1 (centres unmarked) [Example 196, Carbamic acid, [3-[[3-[cyclopropyl(5,6,7,8,9,10-hexahydro-4-hydroxy-2-oxo-2H-cycloocta[b]pyran-3-yl)methyl]phenyl]amino]-3-oxopropyl]-, 1,1-dimethylethyl ester] | 3 nM | 68 | 81.2 | 91.8 | 97.9 | 105 | 95.8 | –
CCC(c1cccc(NS(=O)(=O)CC)c1)c1c(O)c2ccccc2oc1=O (centres unmarked) [Example 138, Ethanesulfonic acid (3-(1-(4-hydroxy-2-oxo-2H-chromen-3-yl)-propyl)-phenyl)-amide] | – | – | – | – | – | 64.5 | – | Ki (HIV-1 protease [1]; HIV-1 FITC KI): 2350 nM; inhibition at 1 µM (HIV-1 protease [2]): 11.9%; inhibition at 100 µM (HIV-1 protease [2]): 99.3%
COC(=O)c1cccc(S(=O)(=O)Nc2cccc(C(c3c(O)c4c(oc3=O)CCCCCC4)C3CC3)c2)c1 (centres unmarked) [Example 354, 3-[[[3-[Cyclopropyl(5,6,7,8,9,10-hexahydro-4-hydroxy-2-oxo-2H-cycloocta[b]pyran-3-yl)methyl]phenyl]amino]sulfonyl]-benzoic acid, methyl ester] | 1.45 nM | 71.4 | 86.4 | 96.1 | 100 | 103 | 108 | –
O=C(CO)Nc1cccc(S(=O)(=O)Nc2cccc(C(c3c(O)c4c(oc3=O)CCCCCC4)C3CC3)c2)c1 (centres unmarked) [Example 409, 3-(Hydroxyacetylamino)-N-[3-[cyclopropyl(5,6,7,8,9,10-hexahydro4-hydroxy-2-oxo-2H-cycloocta[b]pyran-3-yl)methyl]phenyl]-benzenesulfonamide] | 3.3 nM | 65.1 | 90.5 | 102 | 103 | 101 | 108 | –
O=C(CCN1CCCCC1)Nc1cccc(C(c2c(O)c3c(oc2=O)CCCCCC3)C2CC2)c1 (centres unmarked) [Example 205, 1-Piperidinepropanamide, N-[3-[cyclopropyl(5,6,7,8,9,10-hexahydro4-hydroxy-2-oxo-2H-cycloocta[b]pyran-3-yl)methyl]phenyl]-] | 26.1 nM | 12.6 | 56.4 | 76.6 | 94.2 | 109 | 104 | –
O=c1oc2c(c(O)c1C(c1cccc(NS(=O)(=O)CCc3ccccc3)c1)C1CC1)CCCCCC2 (centres unmarked) [Example 346, N-[3-[Cyclopropyl(5,6,7,8,9,10-hexahydro-4-hydroxy-2-oxo-2H-cycloocta[b]pyran-3-yl)methyl]phenyl]-benzeneethanesulfonamide] | 3.85 nM | 75.1 | 92.5 | 97.3 | 102 | 103 | 97 | –
O=c1oc2c(c(O)c1C(c1cccc(NS(=O)(=O)c3cccc(C(F)(F)F)c3)c1)C1CC1)CCCCCC2 (centres unmarked) [Example 280, N-[3-[Cyclopropyl(5,6,7,8,9,10-hexahydro-4-hydroxy-2-oxo-2H-cycloocta[b]pyran-3-yl)methyl]phenyl]-3-(trifluoromethyl)-benzenesulfonamide] | 3 nM | 69.8 | 95.1 | 101 | 110 | 110 | 114 | –
CCCC(c1ccccc1)c1c(O)c2c(oc1=O)CCCCCC2 (centres unmarked) [Example 369, 5,6,7,8,9,10-Hexahydro-4-hydroxy-3-(1-phenylbutyl)-2H-cycloocta[b]pyran-2-one] | 28.5 nM | 54.9 | 83.5 | 96 | 97.1 | 111 | 93.9 | –
O=c1oc2c(c(O)c1C(Cc1ccccc1)Cc1ccccc1)CCCCCC2 [Example 136, 3-(1-Benzyl-2-phenyl-ethyl)-4-hydroxy-5,6,7,8,9,10-hexahydro-cycloocta[b]pyran-2-one] | 108 nM | – | – | – | – | – | – | inhibition at 0.41 µM (HIV-1 protease [2]; read-out: HIV-1 Protease % Inhib, dose 0.410 uM): 56.6%; inhibition at 1.23 µM (HIV-1 protease [2]; read-out: HIV-1 Protease % Inhib, dose 1.230 uM): 80.1%; inhibition at 3.7 µM (HIV-1 protease [2]; read-out: HIV-1 Protease % Inhib, dose 3.700 uM): 90.1%; inhibition at 11 µM (HIV-1 protease [2]; read-out: HIV-1 Protease % Inhib, dose 11.000 uM): 92.4%; inhibition at 33 µM (HIV-1 protease [2]; read-out: HIV-1 Protease % Inhib, dose 33.000 uM): 91.6%; inhibition at 100 µM (HIV-1 protease [2]): 103%
CC(C)(C)OC(=O)N[C@@H](Cc1c[nH]cn1)C(=O)Nc1cccc(C(c2c(O)c3c(oc2=O)CCCCCC3)C2CC2)c1 (single isomer, unassigned) [Example 240, Carbamic acid, [2-[[3-(R or S)-[cyclopropyl(5,6,7,8,9,10-hexahydro-4-hydroxy-2-oxo-2H-cycloocta[b]pyran-3-yl)methyl]phenyl]amino]-1-(S)-(1H-imidazol-4-ylmethyl)-2-oxoethyl]-, 1,1 dimethyl ethyl ester] | 4.2 nM and 5 nM | – | – | – | – | – | – | HIV-1 Protease % Inhib (HIV-1 protease [2]; dose 0.123 uM): 54.87%; HIV-1 Protease % Inhib (HIV-1 protease [2]; dose 0.370 uM): 89.42%; HIV-1 Protease % Inhib (HIV-1 protease [2]; dose 1.100 uM): 111.38%; HIV-1 Protease % Inhib (HIV-1 protease [2]; dose 3.300 uM): 113.39%; HIV-1 Protease % Inhib (HIV-1 protease [2]; dose 10.000 uM): 114.19%; HIV-1 Protease % Inhib (HIV-1 protease [2]; dose 30.000 uM): 109.5%
O=c1oc2c(c(O)c1C(c1ccccc1)C1CC1)CCCC2 (centres unmarked) [Example 115, 3-(Cyclopropylphenylmethyl)-5,6,7,8-tetraphydro-4-hydroxy-2H-1-benzopyran-2-one] | 177 nM | – | – | – | – | 102 | – | inhibition at 1 µM (HIV-1 protease [2]): 62.1%; inhibition at 100 µM (HIV-1 protease [2]): 129%
